# Key:
# duck salad = experiment: Test B flood test duck salad; type: in vivo, Heteranthera limosa
# Procedure, shortened: (§1)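 Each value is a visual injury score relative to controls, with 10 meaning complete control and 0 no effect. Evaluation took place twelve to sixteen days after the 2-leaf-stage plants were treated and kept in the greenhouse.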
# morningglory = experiment: Test B pre/postemergence morningglory; type: in vivo, Ipomoea hederacea
# Procedure, shortened: (§2)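 Response is a visual 0-to-10 score relative to untreated plants, where 0 means no effect and 10 means complete control, taken twelve to sixteen days after application. Treatments went onto soil at planting and onto foliage of 1- to 4-leaf plants, using a surfactant-containing non-phytotoxic solvent.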
# rice = experiment: Test B flood test rice; type: in vivo, Oryza sativa; conditions: for Plant response rating, Rice: Postemergence (flood test)
# Procedure, shortened: as §1
# giant foxtail = experiment: Test B pre/postemergence giant foxtail; type: in vivo, Setaria faberii
# Procedure, shortened: as §2
# [1] = Postemergence (flood test species), Rate 125 g/ha, scale of 0 to 10 where 0 is no effect and 10 is complete control
# [2] = Rate 62 g/ha, Postemergence section, flood test species, scale of 0 to 10 where 0 is no effect and 10 is complete control
# [3] = Rate 500 g/ha, listed under Postemergence (flood test species), scale 0 to 10, 0 no effect, 10 complete control
# [4] = flood test, listed under Postemergence, Rate 250 g/ha, scale 0 to 10, 0 no effect, 10 complete control
# [5] = Postemergence, Rate 125 g/ha, scale of 0 to 10 where 0 is no effect and 10 is complete control
# [6] = Postemergence, Rate 250 g/ha, scale 0 to 10, 0 no effect, 10 complete control
# [7] = Preemergence, Rate 62 g/ha, scale 0 to 10 (0 no effect, 10 complete control)
# [8] = Preemergence, Rate 125 g/ha, scale 0 to 10 (0 no effect, 10 complete control)
# [9] = Preemergence, Rate 250 g/ha, scale of 0 to 10 where 0 is no effect and 10 is complete control
# [10] = Preemergence, Rate 500 g/ha, scale 0 (no effect) to 10 (complete control)
# [11] = Rate 62 g/ha, Postemergence, scale of 0 to 10 where 0 is no effect and 10 is complete control
# [12] = Rate 500 g/ha, Postemergence, scale 0 to 10, 0 no effect, 10 complete control
# [13] = Rate 250 g/ha, scale 0 to 10, 0 is no effect, 10 is complete control
# [14] = Rate 500 g/ha, listed under Postemergence (flood test species), scale 0 to 10
# [15] = Preemergence, Rate 125 g/ha, 0 is no effect, 10 is complete control
# [16] = Preemergence, Rate 250 g/ha, scale 0 to 10, 0 is no effect, 10 is complete control
# [17] = Preemergence, Rate 500 g/ha, scale 0 to 10 (0 no effect, 10 complete control)
# [18] = Rate 250 g/ha, Postemergence, scale 0 to 10, 0 is no effect, 10 is complete control
# [19] = Rate 500 g/ha, Postemergence, scale 0 to 10
# [20] = Postemergence block (flood test species), Rate 250 g/ha, scale 0 to 10
# [21] = Postemergence section (flood test species), Rate 500 g/ha, scale of 0 to 10 where 0 is no effect and 10 is complete control
# [22] = Rate 125 g/ha, Postemergence section (flood test species), scale 0 to 10, 0 is no effect, 10 is complete control
# [23] = Postemergence, Rate 250 g/ha, scale 0 to 10
# [24] = Postemergence, Rate 500 g/ha, scale of 0 to 10 where 0 is no effect and 10 is complete control
# [25] = Preemergence, Rate 125 g/ha, scale of 0 to 10 where 0 is no effect and 10 is complete control
# [26] = Preemergence, Rate 500 g/ha, scale 0 to 10, 0 is no effect, 10 is complete control
# [27] = Rate 125 g/ha, Postemergence, scale 0 to 10, 0 is no effect, 10 is complete control
# [28] = Postemergence, Rate 62 g/ha, scale 0 to 10, 0 is no effect, 10 is complete control
smiles,measurement,setting,value
CCc1noc(C)c1-n1c(=O)on(C(=O)N(c2ccc(F)cc2)C(C)C)c1=O [Compound 101],Ducksalad plant response rating,duck salad; [1],0
same,Ducksalad plant response rating,duck salad; [2],0
same,Ducksalad plant response rating,duck salad; [3],0
same,Ducksalad plant response rating,duck salad; [4],0
same,Morningglory plant response rating,morningglory; [5],0
same,Morningglory plant response rating,morningglory; [6],1
same,Morningglory plant response rating,morningglory; [7],0
same,"Plant response rating, Morningglory",morningglory; [8],0
same,"Plant response rating, Morningglory",morningglory; [9],0
same,Morningglory plant response rating,morningglory; [10],0
same,Morningglory plant response rating,morningglory; [11],0
same,Morningglory plant response rating,morningglory; [12],1
same,Rice plant response rating,rice; [1],0
same,Rice plant response rating,rice; [2],0
same,"Plant response rating, Rice",rice; [13],0
same,Rice plant response rating,rice; [3],0
same,Giant foxtail plant response rating,giant foxtail; [5],0
same,Giant foxtail plant response rating,giant foxtail; [6],0
same,Giant foxtail plant response rating,giant foxtail; [7],0
same,"Plant response rating, Giant foxtail",giant foxtail; [8],0
same,"Plant response rating, Giant foxtail",giant foxtail; [9],0
same,Giant foxtail plant response rating,giant foxtail; [10],0
same,Giant foxtail plant response rating,giant foxtail; [11],0
same,Giant foxtail plant response rating,giant foxtail; [12],0
Cc1ccccc1Cn1c(=O)on(C(=O)N(c2ccc(Cl)cc2)C(C)C)c1=O [Compound 136],Ducksalad plant response rating,duck salad; [1],0
same,Ducksalad plant response rating,duck salad; [2],0
same,"Plant response rating, Ducksalad","duck salad; Rate 250 g/ha, Postemergence (flood test), scale 0 to 10, 0 is no effect, 10 is complete control",0
same,Ducksalad plant response rating,duck salad; [14],0
same,Morningglory plant response rating,morningglory; [5],10
same,Morningglory plant response rating,morningglory; [7],0
same,Morningglory plant response rating (0 to 10 scale),morningglory; [15],0
same,Morningglory plant response rating,morningglory; [16],0
same,Morningglory plant response rating,morningglory; [17],0
same,Morningglory plant response rating,morningglory; [11],6
same,"Plant response rating, Morningglory",morningglory; [18],10
same,Morningglory plant response rating,morningglory; [19],10
same,Rice plant response rating,rice; [1],0
same,Rice plant response rating,rice; [2],0
same,"Plant response rating, Rice",rice; [13],0
same,Rice plant response rating,rice; [14],0
same,Giant foxtail plant response rating,giant foxtail; [5],4
same,Giant foxtail plant response rating,giant foxtail; [7],0
same,Giant foxtail plant response rating (0 to 10 scale),giant foxtail; [15],4
same,Giant foxtail plant response rating,giant foxtail; [16],10
same,Giant foxtail plant response rating,giant foxtail; [17],10
same,Giant foxtail plant response rating,giant foxtail; [11],0
same,"Plant response rating, Giant foxtail",giant foxtail; [18],7
same,Giant foxtail plant response rating,giant foxtail; [19],7
CC(C)N(C(=O)n1oc(=O)n(CCC#N)c1=O)c1ccc(F)cc1F [Compound 433],Ducksalad plant response rating,duck salad; [20],0
same,Ducksalad plant response rating,duck salad; [21],0
same,Ducksalad plant response rating,"duck salad; Rate 62 g/ha, Postemergence (flood test species), scale of 0 to 10 where 0 is no effect and 10 is complete control",0
same,Ducksalad plant response rating,duck salad; [22],0
same,Morningglory plant response rating,morningglory; [23],4
same,Morningglory plant response rating,morningglory; [24],7
same,"Plant response rating, Morningglory",morningglory; [7],0
same,"Plant response rating, Morningglory",morningglory; [25],0
same,Morningglory plant response rating,morningglory; [16],2
same,Morningglory plant response rating,morningglory; [26],3
same,Morningglory plant response rating,morningglory; [27],2
same,Rice plant response rating,rice; [20],0
same,Rice plant response rating,rice; [21],0
same,Rice plant response rating,rice; [22],0
same,Giant foxtail plant response rating,giant foxtail; [23],6
same,Giant foxtail plant response rating,giant foxtail; [24],8
same,"Plant response rating, Giant foxtail",giant foxtail; [7],10
same,"Plant response rating, Giant foxtail",giant foxtail; [25],10
same,Giant foxtail plant response rating,giant foxtail; [16],10
same,Giant foxtail plant response rating,giant foxtail; [26],10
same,Giant foxtail plant response rating,giant foxtail; [11],4
same,Giant foxtail plant response rating,giant foxtail; [27],4
Cc1nn(C)c(Cl)c1-n1c(=O)on(C(=O)N(c2ccc(F)cc2)C(C)C)c1=O [Compound 95],Ducksalad plant response rating,duck salad; [1],0
same,Ducksalad plant response rating,duck salad; [28],0
same,Ducksalad plant response rating,duck salad; [3],0
same,Ducksalad plant response rating,duck salad; [4],0
same,Morningglory plant response rating,morningglory; [28],1
same,Morningglory plant response rating,morningglory; [5],1
same,Morningglory plant response rating,morningglory; [6],2
same,Morningglory plant response rating,morningglory; [7],0
same,"Plant response rating, Morningglory",morningglory; [8],0
same,"Plant response rating, Morningglory",morningglory; [9],0
same,Morningglory plant response rating,morningglory; [10],0
same,Morningglory plant response rating,morningglory; [12],8
same,Rice plant response rating,rice; [1],0
same,Rice plant response rating,rice; [28],0
same,"Plant response rating, Rice",rice; [13],2
same,Rice plant response rating,rice; [3],4
same,Giant foxtail plant response rating,giant foxtail; [28],0
same,Giant foxtail plant response rating,giant foxtail; [5],0
same,Giant foxtail plant response rating,giant foxtail; [6],1
same,Giant foxtail plant response rating,giant foxtail; [7],2
same,"Plant response rating, Giant foxtail",giant foxtail; [8],4
same,"Plant response rating, Giant foxtail",giant foxtail; [9],7
same,Giant foxtail plant response rating,giant foxtail; [10],8
same,Giant foxtail plant response rating,giant foxtail; [12],6

# From patent US6737383B1, “Herbicidal oxadiazolidines” (priority 1999, dated 2004)
